Measurements published in US12138274B2, “Compositions and methods for the treatment of peripheral artery disease and cardiopulmonary diseases” (BOARD OF REGENTS OF THE UNIVERSITY OF NEBRASKA, priority 2018, dated 2024).

Key:
Format in all cases: in vivo, rat
[1] = test system: Interferon Regulatory Factor 8 (IRF8); assay: IRF8 protein expression in T1-T4 DRGs and stellate ganglia after bleomycin lung injury; settings: 4-weeks post-bleomycin rats
rats = assay: Premature ventricle contractions after intra-tracheal bleomycin; settings: single intra-tracheal delivery 2.5 mg/kg
Description: Bleomycin induces experimental lung fibrosis in a variety of animal models and it causes inflammatory and fibrotic reactions within a short period of time, even more so after intratracheal instillation.

vagotomized rats = assay: Pressor and sympatho-excitatory response to topical bradykinin in bleomycin-treated rats; settings: BK 10 μg/ml; 4 weeks after bleomycin, compared to sham
Method: For measuring vitals of the rats, a Millar catheter (SPR 524; size, 3.5-Fr; Millar Instruments, Houston, TX) was advanced through the right common carotid artery and progressed into the aorta and left in place to record arterial pressure (AP), mean arterial pressure (MAP), and heart rate (HR), using PowerLab (Model 16S) and LabChart software (version 7.0) (ADInstruments, Colorado Springs, CO). Renal sympathetic nerve activity (RSNA) and integrated RSNA (iRSNA) were also measured. RSNA was recorded as described (Gao, et al. (2005) Hypertension 45:1173-1181; Wang, et al. (2010) J. Appl. Physiol., 108:1365-1375; Becker, et al. (2016) J. Physiol., 594:5711-5725). In brief, the left kidney, renal artery, and nerves were exposed through a left retroperitoneal flank incision. Sympathetic nerves running on or beside the renal artery were identified. The renal sympathetic nerves were placed on a pair of platinum-iridium recording electrodes and cut distally to avoid recording afferent activity. Nerve activity was amplified ([…]) and filtered (bandwidth: 100 to 3000 Hz) using a Grass P55C preamplifier. […] At the end of the experiment, the rat was euthanized with an overdose of pentobarbital sodium. Respective noise levels were subtracted from the nerve recording data before percent changes from baseline were calculated. […]

bleomycin
IRF8 protein expression in T1-T4 DRGs and stellate ganglia (FIG. 12) [1]: increases
premature ventricle contractions (PVC) (FIG. 14) (rats): dramatic increase
pressor and sympatho-excitatory response to topical BK (FIG. 13) (vagotomized rats): exaggerated pressor and sympatho-excitatory response
